Reference: ChEMBL document CHEMBL3885861, “Open TG-GATES”

Species on record: Rattus norvegicus
Assay: Open TG-GATES - Regimen: Daily Repeat
Assay type: toxicity, organism-based, Sprague-Dawley
Parameters: regimen Daily Repeat, gender Male, age 6 weeks
Conditions: in vivo, po, route gavage; for APTT / Bas / Eos / Fbg / Hb / Ht / Lym / MCH / MCHC / MCV / Mono / Neu / PT / Plat / RBC / Ret / WBC: tissue Blood; for KIDNEY_L / KIDNEY_R / KIDNEY_TOTAL: tissue Kidney; for LIVER: tissue Liver; for A/G / ALP / ALT / AST / BUN / CRE / Ca / Cl / DBIL / GLC / IP / K / LDH / Na / PL / RALB / TBIL / TC / TG / TP / gamma-GTP: tissue Plasma
[1] = 0 mg/kg, 72 h, dose level Control, time 3 day
[2] = 0 mg/kg, […], dose level Control, time 7 day
[3] = 0 mg/kg, […], dose level Control, time 14 day
[4] = 0 mg/kg, […], dose level Control, time 28 day
[5] = 50 mg/kg, 72 h, dose level Low, time 3 day
[6] = 50 mg/kg, […], dose level Low, time 7 day
[7] = 50 mg/kg, […], dose level Low, time 14 day
[8] = 50 mg/kg, […], dose level Low, time 28 day

NNC(=O)c1ccncc1 [ISONIAZID]
TERMINAL_BW [1]: 219.4 g
APTT [1]: 14.3 s
Bas [1]: 0.2%
Eos [1]: 2%
Fbg [1]: 229.4 mg/dL
Hb [1]: 13.6 g/dL
Ht [1]: 40.8%
Lym [1]: 74%
MCH [1]: 21.7 pg
MCHC [1]: 33.2%
MCV [1]: 65.2 fL
Mono [1]: 8.8%
Neu [1]: 15.6%
PT [1]: 12.1 s
Plat [1]: 120.9 x10_4/uL
RBC [1]: 626.2 x10_4/ul
Ret [1]: 8.2%
WBC [1]: 101.8 x10_2/uL
KIDNEY_L [1]: 0.9 g
KIDNEY_R [1]: 1 g
KIDNEY_TOTAL [1]: 1.9 g
LIVER [1]: 11.3 g
A/G [1]: 1.8
ALP [1]: 836.8 IU/L
ALT [1]: 33.6 IU/L
AST [1]: 61.8 IU/L
BUN [1]: 19 mg/dL
CRE [1]: 0.5 mg/dL
Ca [1]: 10.8 mg/dL
Cl [1]: 103.8 meq/L
DBIL [1]: 0.068 mg/dL
GLC [1]: 209.2 mg/dL
IP [1]: 7.6 mg/dL
K [1]: 5.1 meq/L
LDH [1]: 102 IU/L
Na [1]: 139.4 meq/L
PL [1]: 163.4 mg/dL
RALB [1]: 3.8 g/dL
TBIL [1]: 0.3 mg/dL
TC [1]: 85.8 mg/dL
TG [1]: 110.2 mg/dL
TP [1]: 6 g/dL
gamma-GTP [1]: 1.6 IU/L
TERMINAL_BW [2]: 251.9 g
TERMINAL_BW [3]: 294 g
TERMINAL_BW [4]: 374.9 g
APTT [2]: 14.6 s
Bas [2]: 0%
Eos [2]: 1%
Fbg [2]: 235 mg/dL
Hb [2]: 13.8 g/dL
Ht [2]: 41.5%
Lym [2]: 76.8%
MCH [2]: 21.4 pg
MCHC [2]: 33.4%
MCV [2]: 64.2 fL
Mono [2]: 10.2%
Neu [2]: 11.6%
PT [2]: 12 s
Plat [2]: 127.4 x10_4/uL
RBC [2]: 646.4 x10_4/ul
Ret [2]: 6%
WBC [2]: 108.1 x10_2/uL
APTT [3]: 16.1 s
Bas [3]: 0%
Eos [3]: 1.2%
Fbg [3]: 224.2 mg/dL
Hb [3]: 15.1 g/dL
Ht [3]: 44.9%
Lym [3]: 78.2%
MCH [3]: 20.3 pg
MCHC [3]: 33.5%
MCV [3]: 60.6 fL
Mono [3]: 5.5%
Neu [3]: 14.8%
PT [3]: 11.8 s
Plat [3]: 114.6 x10_4/uL
RBC [3]: 740.8 x10_4/ul
Ret [3]: 3.9%
WBC [3]: 109.8 x10_2/uL
APTT [4]: 15.9 s
Bas [4]: 0%
Eos [4]: 1.2%
Fbg [4]: 227.4 mg/dL
Hb [4]: 15.5 g/dL
Ht [4]: 46%
Lym [4]: 85.8%
MCH [4]: 19.7 pg
MCHC [4]: 33.8%
MCV [4]: 58.2 fL
Mono [4]: 3.2%
Neu [4]: 9.2%
PT [4]: 12 s
Plat [4]: 106.3 x10_4/uL
RBC [4]: 790.6 x10_4/ul
Ret [4]: 2.5%
WBC [4]: 140.8 x10_2/uL
KIDNEY_L [2]: 1.1 g
KIDNEY_R [2]: 1.1 g
KIDNEY_TOTAL [2]: 2.2 g
KIDNEY_L [3]: 1.1 g
KIDNEY_R [3]: 1.1 g
KIDNEY_TOTAL [3]: 2.2 g
KIDNEY_L [4]: 1.3 g
KIDNEY_R [4]: 1.3 g
KIDNEY_TOTAL [4]: 2.6 g
LIVER [2]: 12.3 g
LIVER [3]: 13.3 g
LIVER [4]: 15.5 g
A/G [2]: 1.7
ALP [2]: 884.4 IU/L
ALT [2]: 33 IU/L
AST [2]: 56.6 IU/L
BUN [2]: 19.6 mg/dL
CRE [2]: 0.5 mg/dL
Ca [2]: 10.6 mg/dL
Cl [2]: 105 meq/L
DBIL [2]: 0.074 mg/dL
GLC [2]: 223.8 mg/dL
IP [2]: 8.4 mg/dL
K [2]: 5 meq/L
LDH [2]: 115.2 IU/L
Na [2]: 140.4 meq/L
PL [2]: 163 mg/dL
RALB [2]: 3.7 g/dL
TBIL [2]: 0.3 mg/dL
TC [2]: 81.6 mg/dL
TG [2]: 130.2 mg/dL
TP [2]: 5.9 g/dL
gamma-GTP [2]: 1.2 IU/L
A/G [3]: 1.6
ALP [3]: 783.8 IU/L
ALT [3]: 29.6 IU/L
AST [3]: 62 IU/L
BUN [3]: 19.2 mg/dL
CRE [3]: 0.6 mg/dL
Ca [3]: 10.4 mg/dL
Cl [3]: 106.8 meq/L
DBIL [3]: 0.002 mg/dL
GLC [3]: 213.2 mg/dL
IP [3]: 7.9 mg/dL
K [3]: 5.1 meq/L
LDH [3]: 160 IU/L
Na [3]: 139.4 meq/L
PL [3]: 151 mg/dL
RALB [3]: 3.6 g/dL
TBIL [3]: 0.3 mg/dL
TC [3]: 76.4 mg/dL
TG [3]: 144 mg/dL
TP [3]: 5.9 g/dL
gamma-GTP [3]: 0.4 IU/L
A/G [4]: 1.4
ALP [4]: 751.6 IU/L
ALT [4]: 26.8 IU/L
AST [4]: 56.4 IU/L
BUN [4]: 19.4 mg/dL
CRE [4]: 0.5 mg/dL
Ca [4]: 10 mg/dL
Cl [4]: 104.6 meq/L
DBIL [4]: 0.06 mg/dL
GLC [4]: 208.8 mg/dL
IP [4]: 7.2 mg/dL
K [4]: 4.4 meq/L
LDH [4]: 73.4 IU/L
Na [4]: 142.2 meq/L
PL [4]: 141.8 mg/dL
RALB [4]: 3.6 g/dL
TBIL [4]: 0.2 mg/dL
TC [4]: 70.6 mg/dL
TG [4]: 125.6 mg/dL
TP [4]: 6.2 g/dL
gamma-GTP [4]: 1.4 IU/L
TERMINAL_BW [5]: 220.3 g
APTT [5]: 14.6 s
Bas [5]: 0%
Eos [5]: 1.2%
Fbg [5]: 242.2 mg/dL
Hb [5]: 13.6 g/dL
Ht [5]: 40.6%
Lym [5]: 73.4%
MCH [5]: 21.8 pg
MCHC [5]: 33.4%
MCV [5]: 65.3 fL
Mono [5]: 11.8%
Neu [5]: 13.8%
PT [5]: 12 s
Plat [5]: 113 x10_4/uL
RBC [5]: 622.8 x10_4/ul
Ret [5]: 7.5%
WBC [5]: 85.3 x10_2/uL
KIDNEY_L [5]: 1 g
KIDNEY_R [5]: 1 g
KIDNEY_TOTAL [5]: 2 g
LIVER [5]: 11.3 g
A/G [5]: 1.8
ALP [5]: 862.8 IU/L
ALT [5]: 23.2 IU/L
AST [5]: 57 IU/L
BUN [5]: 16.6 mg/dL
CRE [5]: 0.5 mg/dL
Ca [5]: 10.7 mg/dL
Cl [5]: 104.6 meq/L
DBIL [5]: 0.008 mg/dL
GLC [5]: 225.2 mg/dL
IP [5]: 8.3 mg/dL
K [5]: 4.8 meq/L
LDH [5]: 108.6 IU/L
Na [5]: 140.2 meq/L
PL [5]: 145.4 mg/dL
RALB [5]: 3.8 g/dL
TBIL [5]: 0.3 mg/dL
TC [5]: 79.2 mg/dL
TG [5]: 98 mg/dL
TP [5]: 5.9 g/dL
gamma-GTP [5]: 1 IU/L
TERMINAL_BW [6]: 247.3 g
TERMINAL_BW [7]: 307.2 g
TERMINAL_BW [8]: 372.9 g
APTT [6]: 15.7 s
Bas [6]: 0%
Eos [6]: 1%
Fbg [6]: 230.4 mg/dL
Hb [6]: 13.8 g/dL
Ht [6]: 41.1%
Lym [6]: 80.8%
MCH [6]: 20.9 pg
MCHC [6]: 33.5%
MCV [6]: 62.3 fL
Mono [6]: 6.8%
Neu [6]: 11.2%
PT [6]: 12.1 s
Plat [6]: 125.4 x10_4/uL
RBC [6]: 661.6 x10_4/ul
Ret [6]: 6.1%
WBC [6]: 118.4 x10_2/uL
APTT [7]: 15.7 s
Bas [7]: 0%
Eos [7]: 1%
Fbg [7]: 227.8 mg/dL
Hb [7]: 14 g/dL
Ht [7]: 41.8%
Lym [7]: 79%
MCH [7]: 20.1 pg
MCHC [7]: 33.5%
MCV [7]: 60.1 fL
Mono [7]: 7.4%
Neu [7]: 12.8%
PT [7]: 12 s
Plat [7]: 118.6 x10_4/uL
RBC [7]: 697.4 x10_4/ul
Ret [7]: 5.1%
WBC [7]: 137 x10_2/uL
APTT [8]: 15.6 s
Bas [8]: 0%
Eos [8]: 1%
Fbg [8]: 227.4 mg/dL
Hb [8]: 14.7 g/dL
Ht [8]: 44.2%
Lym [8]: 86.2%
MCH [8]: 19.1 pg
MCHC [8]: 33.4%
MCV [8]: 57.3 fL
Mono [8]: 2.8%
Neu [8]: 10%
PT [8]: 12 s
Plat [8]: 102.2 x10_4/uL
RBC [8]: 771.2 x10_4/ul
Ret [8]: 3%
WBC [8]: 149.4 x10_2/uL
KIDNEY_L [6]: 1.1 g
KIDNEY_R [6]: 1.1 g
KIDNEY_TOTAL [6]: 2.2 g
KIDNEY_L [7]: 1.2 g
KIDNEY_R [7]: 1.3 g
KIDNEY_TOTAL [7]: 2.5 g
KIDNEY_L [8]: 1.4 g
KIDNEY_R [8]: 1.3 g
KIDNEY_TOTAL [8]: 2.7 g
LIVER [6]: 12 g
LIVER [7]: 14.1 g
LIVER [8]: 15.1 g
A/G [6]: 1.5
ALP [6]: 797.6 IU/L
ALT [6]: 20.6 IU/L
AST [6]: 60.6 IU/L
BUN [6]: 18.4 mg/dL
CRE [6]: 0.5 mg/dL
Ca [6]: 10.5 mg/dL
Cl [6]: 105.6 meq/L
DBIL [6]: 0.08 mg/dL
GLC [6]: 227.2 mg/dL
IP [6]: 8.2 mg/dL
K [6]: 5 meq/L
LDH [6]: 113 IU/L
Na [6]: 139 meq/L
PL [6]: 147 mg/dL
RALB [6]: 3.6 g/dL
TBIL [6]: 0.3 mg/dL
TC [6]: 73.2 mg/dL
TG [6]: 100.4 mg/dL
TP [6]: 6.1 g/dL
gamma-GTP [6]: 1 IU/L
A/G [7]: 1.6
ALP [7]: 683 IU/L
ALT [7]: 19 IU/L
AST [7]: 58.2 IU/L
BUN [7]: 16 mg/dL
CRE [7]: 0.6 mg/dL
Ca [7]: 10.5 mg/dL
Cl [7]: 105.8 meq/L
DBIL [7]: 0 mg/dL
GLC [7]: 203 mg/dL
IP [7]: 8.1 mg/dL
K [7]: 5.1 meq/L
LDH [7]: 101.6 IU/L
Na [7]: 138.2 meq/L
PL [7]: 138.6 mg/dL
RALB [7]: 3.7 g/dL
TBIL [7]: 0.3 mg/dL
TC [7]: 68.8 mg/dL
TG [7]: 119.2 mg/dL
TP [7]: 6 g/dL
gamma-GTP [7]: 0.4 IU/L
A/G [8]: 1.4
ALP [8]: 560.2 IU/L
ALT [8]: 14.2 IU/L
AST [8]: 55.2 IU/L
BUN [8]: 20.4 mg/dL
CRE [8]: 0.6 mg/dL
Ca [8]: 10.1 mg/dL
Cl [8]: 104.8 meq/L
DBIL [8]: 0.042 mg/dL
GLC [8]: 208.6 mg/dL
IP [8]: 7.3 mg/dL
K [8]: 4.5 meq/L
LDH [8]: 87.4 IU/L
Na [8]: 141.4 meq/L
PL [8]: 138.6 mg/dL
RALB [8]: 3.6 g/dL
TBIL [8]: 0.2 mg/dL
TC [8]: 66.4 mg/dL
TG [8]: 131.2 mg/dL
TP [8]: 6.1 g/dL
gamma-GTP [8]: 1.4 IU/L
